# Results from PubChem BioAssay (NCI).
# Several values for one entry are separate records, joined by “and”; a condition that tells them apart may be missing. Equal entries are not always repeated.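 These data come from cells grown in 96-well plates and exposed to compound for 48 hours at five concentrations. Here, GI50 denotes the concentration required for 50% inhibition of growth. TGI: total growth inhibition.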
# Experiments:
# Experiment in all cases: NCI tumour cell line growth inhibition, 48 h
# [1] = tested on: HCT-116 colon
# [2] = tested on: MALME-3M melanoma
# [3] = tested on: SNB-75 CNS
# [4] = tested on: UACC-62 melanoma
# [5] = tested on: K-562 leukemia
# [6] = tested on: SK-OV-3 ovarian
# [7] = tested on: CAKI-1 renal
# [8] = tested on: COLO 205 colon
# [9] = tested on: HS 578T breast
# [10] = tested on: DU-145 prostate
Compound,TGI [1],GI50 [2],TGI [2],GI50 [3],TGI [3],GI50 [4],TGI [4],GI50 [5],TGI [5],TGI [6],GI50 [7],TGI [7],GI50 [8],TGI [9],TGI [10],TGI [8],GI50 [1],GI50 [6],GI50 [9],GI50 [10]
COc1cc(C2c3cc4c(cc3[C@@H](NC3CCN(Cc5ccccc5)CC3)C3COC(=O)[C@H]23)OCO4)cc(OC)c1O (stereo partly specified),2.28 µM and 1.59 µM,0.238 µM and 0.113 µM,1.6 µM and 1.11 µM,0.0324 µM and 0.218 µM,1.79 µM and 0.636 µM,0.217 µM and 0.0359 µM,1.38 µM and 0.216 µM,0.266 µM and 0.122 µM,12.8 µM and 2.84 µM,0.445 µM and 0.503 µM,0.0372 µM and 0.277 µM,0.694 µM and 2 µM,0.372 µM and 0.179 µM,,,,,,,
CC(NNC(=S)N1CCN(c2ccccn2)CC1)c1nccc2ccccc12 (stereo unspecified),9.29 µM,,15.5 µM,,18.9 µM,,2.35 µM,,14.2 µM,15.1 µM,,10.3 µM,,61.6 µM,13.8 µM,5.93 µM,,,,
CCC(=O)OCOc1ccc(/C=C2\CCC(CN(C)C)C2=O)cc1 (stereo unspecified),18.2 µM,,10.6 µM,,27.6 µM,,13.6 µM,,4.66 µM,29.1 µM,,11.5 µM,,> 79 µM,30.6 µM,15.8 µM,,,,
COc1ccc(N=NC2=C(O)CCC2=O)cc1,> 100 µM,,> 100 µM,,> 100 µM,,30.6 µM,,> 100 µM,> 100 µM,,> 100 µM,,,,> 100 µM,,,,
CCN1CCN(c2ccc(NC(=O)Nc3nc4ccc(-c5ccccc5OC)cc4s3)cc2)CC1,3.01 µM,1.71 µM,3.34 µM,1.49 µM,2.86 µM,1.87 µM,3.45 µM,,,3.55 µM,,,1.97 µM,4.45 µM,3.26 µM,3.85 µM,1.58 µM,1.79 µM,1.95 µM,1.75 µM
COc1cc2c(cc1OCC(=O)Nc1ccc(Cl)cc1C(=O)c1ccccc1Cl)N=CC1CCCN1C2=O (stereo unspecified),20.5 µM,20.1 µM,37 µM,14.2 µM,28.8 µM,15.2 µM,29.2 µM,4.23 µM,19.9 µM,12 µM,13.6 µM,28.3 µM,14.2 µM,24 µM,8.56 µM,30.8 µM,7.18 µM,3.08 µM,7.17 µM,2.65 µM
Clc1ccc2c(NC3CCC(N4CCCCC4)CC3)ccnc2c1 (stereo unspecified),44.7 µM,,36.1 µM,,,,32.2 µM,,62.1 µM,> 100 µM,,50.7 µM,,56.4 µM,> 100 µM,27.2 µM,,,,
C[C@@H]1CC[C@@H]2[C@@H]1[C@H](OC(=O)/C=C/C1CCCCC1)[C@]1(C3CCCCC3)C[C@@H](OC(=O)CO)[C@@]2(C)O1,26.6 µM,14.5 µM,28.9 µM,1.32 µM,16.5 µM,13.5 µM,26.8 µM,15.9 µM,35.9 µM,27.7 µM,0.034 µM,14.8 µM,15.4 µM,0.0556 µM,27.3 µM,30 µM,13.5 µM,15 µM,0.0162 µM,14.3 µM
